Experimental data published in patent US20100152188A1, “Novel Heterocyclic Compounds” (priority 2005, published 2010).

Columns and labels:
HDAC = HDAC inhibition; type: biochemical; details: for HDAC Inhibition 1 μM: compound at 1 μM; for HDAC Inhibition 10 μM: compound at 10 μM
MDAMB-231/U 251 = test: Anti-cancer screen (MTT), MDAMB-231/U 251; type: cell-based; details: for CC50: 48 h, read-out: MDAMB-231/U 251 LC50; for GI50 / IC (TGI): 48 hours with compound, MTT, tested at 0.01-100 µM
Method in brief: (§1)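 Five-point dosing (0.01, 0.1, 1, 10, 100 µM) for 48 h, with triplicate wells and a separate zero-time plate. Viability is read by MTT at 570 nm and expressed as percent growth, from which GI50, TGI and LC50 are taken.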

[1] = test system: NCIH460, HCT116, MDAMB-231/U 251; test: Anti-cancer screen, mean GI50 over the cell lines; type: cell-based; details: in µM
Method in brief: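 Growth was scored by MTT absorbance at 570 nm relative to control wells and a pre-treatment T0 reading. Compounds were tested at five final concentrations (0.01–100 µM, triplicate) for 48 h on NCIH460, HCT116 and U251 cells, each plated at 5000 cells/well 24 h before dosing.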

HCT116 = test: Anti-cancer screen (MTT), HCT116; type: cell-based; details: Homo sapiens, HCT-116, 48 hours with compound, tested at 0.01-100 µM
Method in brief: as §1

NCIH460 = test: Anti-cancer screen (MTT), NCIH460; type: cell-based; details: Homo sapiens, NCI-H460, 48 hours with compound, tested at 0.01-100 µM
Method in brief: as §1

O=C(NCc1ccc(C(=O)N2CCN(c3ccccn3)CC2)cc1)OCc1cccs1 [Example 71, 2-Thienylmethyl{4-[(4-pyridin-2-ylpiperazin-1-yl)carbonyl]benzyl}carbamate]
HDAC Inhibition 1 μM (HDAC): 9.14 | HDAC Inhibition 10 μM (HDAC): 7.67 | melting point: 129.3 to 130.3 °C

O=C(NCc1ccc(C(=O)N2CCN(c3ncccn3)CC2)cc1)OCc1cccs1 [Example 72, 2-Thienylmethyl{4-[(4-pyrimidin-2-ylpiperazin-1-yl)carbonyl]benzyl}carbamate]
HDAC Inhibition 1 μM (HDAC): 8.08 | HDAC Inhibition 10 μM (HDAC): 8.40 | melting point: 143.6 to 144.6 °C

O=C(NCc1ccc(C(=O)N2CCC[C@H]2C(=O)NO)cc1)OCc1cccs1 [Example 99, 2-Thienylmethyl[4-({(2S)-2-[(hydroxyamino)carbonyl]pyrrolidin-1-yl}carbonyl)benzyl]carbamate]
melting point: 90.6 to 91.5 °C

O=C(NCc1ccc(C(=O)N[C@@H](Cc2ccc(O)cc2)C(=O)NO)cc1)OCc1cccs1 [Example 100, 2-Thienylmethyl[4-({[2-(hydroxyamino)-1-(4-hydroxybenzyl)-2-oxoethyl]amino}carbonyl)benzyl]carbamate]
HDAC Inhibition 1 μM (HDAC): 13.63 | HDAC Inhibition 10 μM (HDAC): 40.64 | melting point: 162.6 to 163.4 °C

O=C(NCc1ccc(C(=O)Nc2ccccc2NC(=O)c2ccc3c(c2)OCO3)cc1)OCc1cccs1 [Example 106, 2-thienylmethyl(4-[({(2-{1,3-benzodioxol-5-ylcarbonyl}amino)-phenyl}amino)carbonyl]benzyl)carbamate]
CC50 (MDAMB-231/U 251): > 100 µM | GI50 (MDAMB-231/U 251): 5.2 µM | IC (TGI) (MDAMB-231/U 251): > 100 µM | HDAC Inhibition 1 μM (HDAC): 2.1 | HDAC Inhibition 10 μM (HDAC): 7.2 | Mean GI50 [1]: 2.8 | GI50 (HCT116): > 100 µM | IC (TGI) (HCT116): > 100 µM | LC50 (concentration giving 50% net cell kill relative to T0) (HCT116): > 100 µM | GI50 (NCIH460): 0.44 µM | IC (TGI) (NCIH460): 107 µM | LC50 (NCIH460): > 100 µM

O=C(CSC(F)F)Nc1cccc(NC(=O)c2ccc(CNC(=O)OCc3cccs3)cc2)c1 [Example 108, 2-Thienylmethyl[4-({[3-({[(difluoromethyl)thio]acetyl}amino)phenyl]amino}carbonyl)benzyl]carbamate]
CC50 (MDAMB-231/U 251): > 100 µM | GI50 (MDAMB-231/U 251): 5 µM | IC (TGI) (MDAMB-231/U 251): 15 µM | HDAC Inhibition 1 μM (HDAC): −8.74 | HDAC Inhibition 10 μM (HDAC): −0.86 | Mean GI50 [1]: >100 | GI50 (HCT116): 100 µM | IC (TGI) (HCT116): > 100 µM | LC50 (concentration giving 50% net cell kill relative to T0) (HCT116): > 100 µM | GI50 (NCIH460): 9.5 µM | IC (TGI) (NCIH460): > 100 µM | LC50 (NCIH460): > 100 µM

N/C(=N/O)c1ccc(NC(=O)OCc2cccs2)cc1 [Example 110, 2-thienylmethyl{4-[(E)-amino(hydroxyimino)-methyl]-phenyl}-carbamate]
CC50 (MDAMB-231/U 251): > 100 µM | GI50 (MDAMB-231/U 251): 10 µM | IC (TGI) (MDAMB-231/U 251): > 100 µM | HDAC Inhibition 1 μM (HDAC): 17.50 | HDAC Inhibition 10 μM (HDAC): 52.34 | Mean GI50 [1]: >100 | GI50 (HCT116): 80 µM | IC (TGI) (HCT116): > 100 µM | LC50 (concentration giving 50% net cell kill relative to T0) (HCT116): > 100 µM | GI50 (NCIH460): > 100 µM | IC (TGI) (NCIH460): > 100 µM | LC50 (NCIH460): > 100 µM
